Test results as given in patent publication US20250296960A1, “PEPTIDE COMPOSITIONS AND METHODS OF USE THEREOF” (priority 2022, published 2025).
Values joined by “and” are separate entries in the source; they are usually repeats but may differ in a detail not shown here. Equal entries are not always repeated. Square brackets hold non-standard residues; d marks the D form. Peptide text beside a SMILES is read from it. * marks the point of attachment. X1 = O=C(O)CCCCCCCCCCCCCCCCC(=O)N[C@@H](CCC(=O)NCCOCCOCC(=O)NCCOCCOCC(=O)NCCN1C(=O)CC(*)C1=O)C(=O)O; Aib = CC(C)(N)C(=O)O

Key:
human GCGR = biological target: T1, human GCGR (Homo sapiens, UniProt P47871); assay: cAMP assay (HitHunter cAMP) in GCGR-expressing CHO-K1 cells (GCGR+ cells); format: cell-based; conditions: for Activity relative to STD peptide (%), GCGR: Table 18; for Activity relative to GLP-1 (%), GCGR: Table 19; for Relative % to native ligand, GCGR: Table 24, ratio of EC50 of native ligand over peptide; for Ratio vs. GLP-1R, GCGR: Table 25; for Relative % to non-lipidated peptide, GCGR: Table 26
T1 construct: host or cells: CHO-K1
T1 sequence (P47871 26-477): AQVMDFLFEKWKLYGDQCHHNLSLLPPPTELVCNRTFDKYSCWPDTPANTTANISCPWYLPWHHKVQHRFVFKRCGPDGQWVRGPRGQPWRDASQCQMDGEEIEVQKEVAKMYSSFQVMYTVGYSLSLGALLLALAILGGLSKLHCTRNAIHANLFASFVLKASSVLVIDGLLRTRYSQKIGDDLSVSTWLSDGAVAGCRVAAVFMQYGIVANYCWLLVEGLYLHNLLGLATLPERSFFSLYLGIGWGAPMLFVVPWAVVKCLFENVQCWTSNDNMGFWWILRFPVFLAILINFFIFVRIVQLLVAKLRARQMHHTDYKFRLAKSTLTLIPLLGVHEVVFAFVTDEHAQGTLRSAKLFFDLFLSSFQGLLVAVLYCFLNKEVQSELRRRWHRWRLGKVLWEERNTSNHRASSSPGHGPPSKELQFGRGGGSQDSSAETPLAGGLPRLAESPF
Description: (§1) The cells were seeded in a 96-well plate at 7×10^3 cells/well using cell plate reagent and incubated the cells overnight at 37° C. and 5% CO2. To perform the cAMP detection assay, cell plating reagent were replaced with the cAMP Assay buffer. Each of the wells was then treated with the diluted peptide and incubated for 30 minutes under conditions of a temperature of 37° C. in a CO2 incubator.
(§2) After the incubation, cAMP Antibody reagent and Working cAMP detection solution to all wells. Incubate the plate for 1 hour at Room temperature in the dark. Then, cAMP Solution A was added and incubated for 3 hours at room temperature in the dark. Subsequently, the luminescence was measured using the microplate reader device.

[1] = Body weight loss in normal C57BL/6 mice, subcutaneous dosing; format: in vivo; conditions: for Weight loss (%): normal mice, after 48 or 72 hours
Description: To confirm the therapeutic effect of the peptide in vivo, polypeptides were administered to mice to measure changes in body weight. […] The peptides were delivered at 0.02% polysorbate 80 (PS80) in PBS and dosing volume was 10 mL/kg. Body weight was monitored 6 h, QD.
To confirm the therapeutic effect of the peptide in obesity, diabetes, or NASH, polypeptides were administered to mice to measure changes in food intake, blood glucose and body weight. […] In addition, a NASH animal model was prepared by feeding a high fat, high fructose, high cholesterol diet to normal C57BL/6 mice (approximately 6 weeks old) for approximately 21 weeks, and increasing the body weights of the mice to approximately 50 g on average. Thereafter, polypeptides were administered by subcutaneous injection at dose of 20 nmol/kg once every other day for 2 weeks. Body weight and food intake were measured once every other day given points of time. After 2 weeks of treatment period, mice were sacrificed, then liver weight, hepatic triglyceride, and NASH related biomarkers were measured.
DD01 administered at 40 nmol/kg, s.c. Q2D as positive control was delivered at 0.02% PS80 in PBS and dosing volume was 10 mL/kg. Body weight was monitored QD for 4 days.
The peptides were delivered at 0.02% PS80 in PBS and dosing volume was 10 mL/kg. Food intake, blood glucose, and body weight changes were monitored QD.

human GLP-1R = biological target: T2, human GLP-1R (Homo sapiens, UniProt P43220); assay: cAMP assay (HitHunter cAMP) in GLP-1R-expressing CHO-K1 cells (GLP-1R+ cells); format: cell-based; conditions: for Activity relative to STD peptide (%), GLP-1R: Table 18; for Activity relative to GLP-1 (%), GLP-1R: Table 19; for Relative % to native ligand, GLP-1R: Table 24, ratio of EC50 of native ligand over peptide; for Ratio vs. GLP-1R, GLP-1R: Table 25; for Relative % to non-lipidated peptide, GLP-1R: Table 26
T2 construct: host or cells: CHO-K1
T2 sequence (P43220 24-463): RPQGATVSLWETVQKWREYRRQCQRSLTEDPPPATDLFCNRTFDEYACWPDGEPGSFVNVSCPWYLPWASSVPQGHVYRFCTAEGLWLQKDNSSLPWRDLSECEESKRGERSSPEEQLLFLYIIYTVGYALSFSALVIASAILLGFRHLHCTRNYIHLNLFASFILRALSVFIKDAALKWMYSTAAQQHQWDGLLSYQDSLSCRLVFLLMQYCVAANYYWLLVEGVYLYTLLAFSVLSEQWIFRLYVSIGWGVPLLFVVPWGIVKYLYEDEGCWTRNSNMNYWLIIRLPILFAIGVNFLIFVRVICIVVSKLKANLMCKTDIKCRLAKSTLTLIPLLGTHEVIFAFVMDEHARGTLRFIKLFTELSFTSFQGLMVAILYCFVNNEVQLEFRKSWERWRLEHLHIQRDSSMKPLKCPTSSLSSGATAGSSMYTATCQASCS
Description: as §1, §2

human GIPR = biological target: T3, human GIPR (Homo sapiens, UniProt P48546); assay: cAMP assay (HitHunter cAMP) in GIPR-expressing CHO-K1 cells (GIPR+ cells); format: cell-based; conditions: for Activity relative to STD peptide (%), GIPR: Table 18; for Activity relative to GLP-1 (%), GIPR: Table 19; for Relative % to native ligand, GIPR: Table 24, ratio of EC50 of native ligand over peptide; for Ratio vs. GLP-1R, GIPR: Table 25; for Relative % to non-lipidated peptide, GIPR: Table 26
T3 construct: host or cells: CHO-K1
T3 sequence (P48546 22-466): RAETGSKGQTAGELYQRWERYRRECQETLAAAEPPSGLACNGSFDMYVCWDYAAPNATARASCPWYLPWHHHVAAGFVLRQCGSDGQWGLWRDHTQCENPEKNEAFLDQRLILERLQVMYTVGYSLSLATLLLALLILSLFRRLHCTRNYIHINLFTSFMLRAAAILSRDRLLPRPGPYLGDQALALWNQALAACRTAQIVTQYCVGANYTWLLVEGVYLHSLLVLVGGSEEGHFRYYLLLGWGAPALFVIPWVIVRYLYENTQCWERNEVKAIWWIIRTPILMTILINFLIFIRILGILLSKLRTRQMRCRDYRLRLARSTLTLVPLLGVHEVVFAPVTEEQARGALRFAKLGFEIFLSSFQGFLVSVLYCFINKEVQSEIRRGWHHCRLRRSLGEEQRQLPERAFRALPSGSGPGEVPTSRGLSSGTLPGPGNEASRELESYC
Description: as §1, §2

[2] = normalised to activity at GLP-1R
[3] = Table 13, EC50 of STD peptide over EC50 of peptide
[4] = Table 14, normalised to activity at GLP-1R

Row | SMILES | Activity relative to STD peptide (%), GCGR (human GCGR) | Activity relative to GLP-1 (%), GCGR (human GCGR; [2]) | Relative % to native ligand, GCGR (human GCGR) | Ratio vs. GLP-1R, GCGR (human GCGR) | Relative % to non-lipidated peptide, GCGR (human GCGR) | Weight loss (%) ([1]; 20 nmol/kg QD) | Activity relative to STD peptide (%), GLP-1R (human GLP-1R) | Activity relative to GLP-1 (%), GLP-1R (human GLP-1R; [2]) | Relative % to native ligand, GLP-1R (human GLP-1R) | Ratio vs. GLP-1R, GLP-1R (human GLP-1R) | Relative % to non-lipidated peptide, GLP-1R (human GLP-1R) | Activity relative to STD peptide (%), GIPR (human GIPR) | Activity relative to GLP-1 (%), GIPR (human GIPR; [2]) | Relative % to native ligand, GIPR (human GIPR) | Ratio vs. GLP-1R, GIPR (human GIPR) | Relative % to non-lipidated peptide, GIPR (human GIPR) | further results
1 | CC[C@H](C)[C@H](NC(=O)[C@H](CC(C)C)NC(=O)[C@H](Cc1c[nH]c2ccccc12)NC(=O)[C@H](CCC(N)=O)NC(=O)[C@@H](NC(=O)[C@H](Cc1ccccc1)NC(=O)[C@H](CC(=O)O)NC(=O)[C@H](CCCNC(=N)N)NC(=O)[C@H](CCC(N)=O)NC(=O)[C@H](CCSC)NC(=O)[C@H](CCSC)NC(=O)[C@H](Cc1ccc(O)cc1)NC(=O)[C@H](CC(=O)O)NC(=O)[C@H](CC(C)C)NC(=O)[C@H](Cc1ccc(O)cc1)NC(=O)[C@H](CCCCN)NC(=O)[C@H](CO)NC(=O)[C@H](Cc1ccc(O)cc1)NC(=O)[C@H](CC(=O)O)NC(=O)[C@H](CO)NC(=O)[C@@H](NC(=O)[C@H](Cc1ccccc1)NC(=O)[C@@H](NC(=O)CNC(=O)[C@H](CCC(N)=O)NC(=O)C(C)(C)NC(=O)[C@@H](N)Cc1ccc(O)cc1)[C@@H](C)O)[C@@H](C)O)C(C)C)C(=O)N[C@@H](CCC(=O)O)C(=O)NCC(=O)NCC(=O)N1CCC[C@H]1C(=O)N[C@@H](CO)C(=O)N[C@@H](CO)C(=O)NCC(=O)N[C@@H](C)C(=O)N1CCC[C@H]1C(=O)N1CCC[C@H]1C(=O)N1CCC[C@H]1C(=O)N[C@@H](CO)C(=O)N[C@@H](CSC1CC(=O)N(CCNC(=O)COCCOCCNC(=O)COCCOCCNC(=O)CC[C@H](NC(=O)CCCCCCCCCCCCCCCCC(=O)O)C(=O)O)C1=O)C(N)=O (stereo partly shown) [5-2A] (H-Y[Aib]QGTFTSDYSKYLDYMMQRDFVQWLIEGGPSSGAPPPSC(X1)-NH2; N-terminus assumed) | 1% | 0% | 1% | 0 | 1% | 10.4 ± 1.2% | 145% | 100% | 145% | 100 | 29% | 3% | 2% | 3% | 2 | 0.4% | 
2 | CC[C@H](C)[C@H](NC(=O)[C@H](CC(C)C)NC(=O)[C@H](Cc1c[nH]c2ccccc12)NC(=O)[C@H](CCC(N)=O)NC(=O)[C@@H](NC(=O)[C@H](Cc1ccccc1)NC(=O)[C@H](CC(=O)O)NC(=O)[C@H](CCCNC(=N)N)NC(=O)[C@H](C)NC(=O)[C@H](CCSC)NC(=O)[C@H](CCSC)NC(=O)[C@H](Cc1ccc(O)cc1)NC(=O)[C@H](CC(=O)O)NC(=O)[C@H](CC(C)C)NC(=O)[C@H](Cc1ccc(O)cc1)NC(=O)[C@H](CCCCN)NC(=O)[C@H](CO)NC(=O)[C@H](Cc1ccc(O)cc1)NC(=O)[C@H](CC(=O)O)NC(=O)[C@H](CO)NC(=O)[C@@H](NC(=O)[C@H](Cc1ccccc1)NC(=O)[C@@H](NC(=O)CNC(=O)[C@H](CCC(N)=O)NC(=O)C(C)(C)NC(=O)[C@@H](N)Cc1c[nH]cn1)[C@@H](C)O)[C@@H](C)O)C(C)C)C(=O)N[C@@H](CCC(=O)O)C(=O)NCC(=O)NCC(=O)N1CCC[C@H]1C(=O)N[C@@H](CO)C(=O)N[C@@H](CO)C(=O)NCC(=O)N[C@@H](C)C(=O)N1CCC[C@H]1C(=O)N1CCC[C@H]1C(=O)N1CCC[C@H]1C(=O)N[C@@H](CO)C(=O)N[C@@H](CSC1CC(=O)N(CCNC(=O)COCCOCCNC(=O)COCCOCCNC(=O)CC[C@H](NC(=O)CCCCCCCCCCCCCCCCC(=O)O)C(=O)O)C1=O)C(N)=O (stereo partly shown) [5A] | 8% | 2% | 14% | 7 | 2% | 20.1 ± 1.3% and 18.8 ± 0.9% and 19.3 ± 1.9% and 22.9 ± 1.5% | 520% | 100% | 201% | 100 | 33% | 0% | 0% | 5% | 2 | 167% | Percentage change in EC50 relative to GCG at human GCGR (%) (human GCGR; Table 10, lipidated (A type) peptides): 14%; Activity relative to STD peptide (%), Glucagon (human GCGR; [3]): 8%; Activity relative to GLP-1 (%), Glucagon (human GCGR; [4]): 10%; body weight loss (BWL), in words ([1]; Example 3, 20 nmol/kg QD or 30 nmol/kg Q2D s.c., 4 days): Superior body weight loss; body weight loss effect, in words ([1]; Example 5, 20 nmol/kg s.c. QD, 4 days): Superior body weight loss effects; Weight loss (%) ([1]; 10 nmol/kg QD): 15.7 ± 2.2%; Weight loss (%) ([1]; 30 nmol/kg Q2D): 14.6 ± 1.8%; Percentage change in EC50 relative to GLP-1 at human GLP-1R (%) (human GLP-1R; Table 9, lipidated (A type) peptides): 201%; Activity relative to STD peptide (%), GLP-1 (human GLP-1R; [3]): 84%; Activity relative to GLP-1 (%), GLP-1 (human GLP-1R; [4]): 100%; Percentage change in EC50 relative to GIP at human GIPR (%) (human GIPR; Table 11, lipidated (A type) peptides): 5%; Activity relative to STD peptide (%), GIP (human GIPR; [3]): 1%; Activity relative to GLP-1 (%), GIP (human GIPR; [4]): 2%
3 | CSCC[C@H](NC(=O)[C@H](Cc1ccc(O)cc1)NC(=O)[C@H](CC(=O)O)NC(=O)[C@H](CC(C)C)NC(=O)[C@H](CC(C)C)NC(=O)[C@H](CCCCN)NC(=O)[C@H](CO)NC(=O)[C@H](Cc1ccc(O)cc1)NC(=O)[C@H](CC(=O)O)NC(=O)[C@H](CO)NC(=O)[C@@H](NC(=O)[C@H](Cc1ccccc1)NC(=O)[C@@H](NC(=O)CNC(=O)[C@H](CCC(N)=O)NC(=O)C(C)(C)NC(=O)[C@@H](N)Cc1c[nH]cn1)[C@@H](C)O)[C@@H](C)O)C(=O)N[C@@H](CCSC)C(=O)N[C@@H](CCC(N)=O)C(=O)N[C@@H](CCCNC(=N)N)C(=O)N[C@@H](CC(=O)O)C(=O)N[C@@H](Cc1ccccc1)C(=O)N[C@H](C(=O)N[C@@H](CCC(N)=O)C(=O)N[C@@H](Cc1c[nH]c2ccccc12)C(=O)N[C@@H](CC(C)C)C(=O)N[C@@H](CC(C)C)C(=O)N[C@@H](CCC(=O)O)C(=O)NCC(=O)NCC(=O)N1CCC[C@H]1C(=O)N[C@@H](CO)C(=O)N[C@@H](CO)C(=O)NCC(=O)N[C@@H](C)C(=O)N1CCC[C@H]1C(=O)N1CCC[C@H]1C(=O)N1CCC[C@H]1C(=O)N[C@@H](CO)C(=O)N[C@@H](CSC1CC(=O)N(CCNC(=O)COCCOCCNC(=O)COCCOCCNC(=O)CC[C@H](NC(=O)CCCCCCCCCCCCCCCCC(=O)O)C(=O)O)C1=O)C(N)=O)C(C)C (stereo partly shown) [5-5A] (H-H[Aib]QGTFTSDYSKLLDYMMQRDFVQWLLEGGPSSGAPPPSC(X1)-NH2; N-terminus assumed) | 1% | 0% | 1% | 0 | 1% | 10.6 ± 1.0% | 673% | 100% | 673% | 100 | 40% | 14% | 2% | 14% | 2 | 3% | 
